This is an account of results in US5210193A, “Piperazine derivatives” (American Cyanamid Company, priority 1990, dated 1993).

The structures appear in SMILES notation. Converted amounts (≈) assume the structure as drawn. Some results are limits rather than exact numbers.

For assay [1], the system named is Enterobacter aerogenes VGH 84-36. As to the kind of experiment: in vitro antibacterial MIC, agar plate dilution. The note with it: Klebsiella aerogenes, VGH8436, 18 hours, 35° C., read-out: MIC. Format: cell-based. An outline of the steps:
(§1)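 Read-out is visible growth inhibition on Mueller-Hinton agar dilution plates incubated 18 hours at 35° C after inoculation of ~10^4 CFU (Steers device), with MIC reported in mcg/ml.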

For assay [2], the system named is Enterobacter cloacae VGH 84-37. As to the kind of experiment: in vitro antibacterial MIC, agar plate dilution. Format: cell-based. As to conditions: Enterobacter cloacae, VGH8437, 18 h, 35° C., read-out: MIC. The procedure, abridged:
as §1

The subject of assay [3] is Escherichia coli ATCC 25922. As to the kind of experiment: in vitro antibacterial MIC, agar plate dilution. The note with it: Escherichia coli, ATCC25922, 18 h, 35° C., read-out: MIC. Format: cell-based. An outline of the steps: as §1
The test system of assay [4] is Escherichia coli CMC 84-11. As to the kind of experiment: in vitro antibacterial MIC, agar plate dilution. The class given is cell-based. As to conditions: Escherichia coli, CMC8411, 18 h, 35° C., read-out: MIC. The procedure, abridged: as §1
In the next assay the test system is Klebsiella pneumoniae AD. In words: in vitro antibacterial MIC, agar plate dilution. The class given is cell-based. The note with it: Klebsiella pneumoniae, 18 h, 35° C., read-out: MIC. An outline of the steps: as §1
Assay [5] deals with Klebsiella pneumoniae MOR 84-4. In words: in vitro antibacterial MIC, agar plate dilution. The note with it: Klebsiella pneumoniae, MOR844, 18 h, 35° C., read-out: MIC. Format: cell-based. An outline of the steps:
as §1

The test system of assay [6] is Morganella morganii VGH 84-11. In words: in vitro antibacterial MIC, agar plate dilution. The class given is cell-based. The note with it: VGH8411, 18 hours, 35° C., read-out: MIC. An outline of the steps:
as §1

For assay [7], the system named is Proteus rettgeri CMC 84-41. In words: in vitro antibacterial MIC, agar plate dilution. Format: cell-based. As to conditions: Providencia rettgeri, CMC8441, 18 h, 35° C., read-out: MIC. An outline of the steps: as §1
Assay [8] has as its system Pseudomonas aeruginosa VGH 84-4. As to the kind of experiment: in vitro antibacterial MIC, agar plate dilution. The class given is cell-based. As to conditions: Pseudomonas aeruginosa, VGH844, 18 h, 35° C., read-out: MIC. The procedure, abridged: as §1
The subject of assay [9] is Staphylococcus aureus ATCC 25913. In words: in vitro antibacterial MIC, agar plate dilution. The class given is cell-based. The note with it: ATCC25913, 18 hours, 35° C. An outline of the steps: as §1
In assay [10] the test system is Staphylococcus aureus Smith. As to the kind of experiment: in vitro antibacterial MIC, agar plate dilution. The note with it: Staphylococcus aureus, 18 h, 35° C., read-out: MIC. Format: cell-based. The procedure, abridged: as §1
The subject of assay [11] is Staphylococcus aureus Smith. In words: in vivo antibacterial activity, survival of infected mice (Table III). As to conditions: subcutaneous. Details: species or system Charles River CD-1 mice. As for the experimental part:
Charles River CD-1 mice were infected with either Klebsiella pneumoniae AD or Staphylococcus aureus Smith. A single subcutaneous dose of the test compound was administered 1/2 hour after infection. […] The results appear in Tables II and III, wherein the representative test compounds are identified by the number of their hereinafter described examples.

With `CCn1cc(C(=O)O)c(=O)c2cc(F)c(N3CCN(C)C(c4ccc(Br)s4)C3)cc21` (stereo not shown) [Example 14, 7-[3-(5-Bromo-2-thienyl)-4-methyl-1-piperazinyl]-1-ethyl-6-fluoro-1,4-dihydro-4-oxo-3-quinolinecarboxylic acid], the minimal inhibitory concentration (MIC) in assay [1] is greater than 256 µg/mL; in assay [2], greater than 256 µg/mL; in assay [3], greater than 256 µg/mL; in assay [4], greater than 256 µg/mL; in the assay with Klebsiella pneumoniae AD it was 256 µg/mL (≈ 518 µM); in assay [5], greater than 256 µg/mL. In addition, the MIC is greater than 256 µg/mL in assay [6]; 128 µg/mL (≈ 259 µM) in assay [7]; greater than 256 µg/mL in assay [8]; 0.5 µg/mL (≈ 1.01 µM) in assay [9]; 0.25 µg/mL (≈ 0.506 µM) in assay [10]. The “Survival Ratio 7 Days After Infection” value is 0/5 in assay [11] (0.5 mg/kg single dose); 0/5 in assay [11] (1 mg/kg single dose); 0/5 in assay [11] (2 mg/kg single dose); 5/5 in assay [11] (4 mg/kg single dose); 5/5 in assay [11] (8 mg/kg single dose).

Usually MIC stands for the lowest concentration that inhibits growth of the organism.
